Laboratory results from US10017463B2, “Inhibitors of deubiquitinating proteases” (Brandeis University, priority 2014, dated 2018).

System: leukemic cell lines
Assay: NCI-60 human tumor cell line screen
Format: cell-based
Settings: 48 h treatment
Text: For example, a value of 100 means no growth inhibition and a value of 40 indicates 60% growth inhibition. A value of ‘0’ indicates complete growth inhibition.

CC(C)(C)OC(=O)NCc1cccc(N=C=S)c1 [TU50]
lethality in NCI-60 screen: selective lethality against leukemic cell lines
